The record followed here is patent publication US20240165112A1, “THERAPY FOR THE TREATMENT OF CANCER” (Bristol-Myers Squibb Company, priority 2022, published 2024).

The subject of this assay is TNC, ACTA2, PAI-1 transcripts in lung cancer-associated fibroblasts (CAF). Put plainly: TGF-β-induced gene transcription, fibroblast activation markers (RT-PCR). Format: cell-based, human. How it is done: FIGS. 9A-9C illustrates the effect of Compound 1 on Transcriptional Markers of Fibroblast Activation in Lung Cancer Associated Fibroblasts Treated with TGF-β. […] Lung cancer-associated fibroblasts (CAF, black bars) were treated with 10 ng/mL TGF-β after 1-hour pre-incubation with a range of Compound 1 concentrations, and cells were lysed 24 hours later. Indicated gene transcripts were assessed by RT-PCR relative to GAPDH. Data were normalized to expression after TGF-β-treatment in the presence of only DMSO. Data are presented as mean of 3 biological replicates, and error bars indicate standard deviation. The graphs are representative of at least 2 independent experiments. *P<0.05; ** P<0.01, ***P<0.001; ****P<0.0001 by student's t-test. Abbreviations: ACTA2, smooth muscle actin; CAF, cancer associated fibroblasts; DMSO, dimethyl sulfoxide; GAPDH, glyceraldehyde-3-phosphate dehydrogenase; NHLF, normal lung human fibroblasts; PAI-1, plasminogen activator inhibitor 1; RNA, ribonucleic acid; RT-PCR, reverse transcription polymerase chain reaction; […], transforming growth factor beta; TNC, tenascin C.
Cells were seeded (75,000 NHLF and lung CAF cells) into 12 well plates with RPMI+10% FBS and allowed to adhere overnight at 37° C., 5% CO2. After one day of serum starvation, cells were pre-treated for 1 hour with DMSO or Compound 1 at 30 μM, 10 μM, 3 μM, 1 μM, or 0.3 μM and then stimulated with 10 ng/mL TGF-β. The 24-hour Compound 1 treated samples were harvested for ribonucleic acid (RNA) extraction.
Cells were directly lysed in Qiagen™ Buffer RLT Plus with 1% 2-Mercaptoethanol added. Total RNA from tumor samples and cell lines was isolated using Qiagen™ AllPrep® DNA/RNA 96 Kit according to manufacturer's protocol. Isolated RNA was analyzed with NanoDrop™ ONE Spectrophotometer for concentration. The RNA integrity was also analyzed on Agilent TapeStation 4200.
Complimentary deoxyribonucleic acid (cDNA) was prepared by using Invitrogen™ SuperScript™ III First-Strand Synthesis SuperMix for qRT-PCR. Up to 1 μg of RNA was prepared according to manufacturer's protocol, using Applied Biosystems™ Veriti™ 96-well thermal cycler. The reverse transcription (RT) program used for cDNA synthesis: • 1. 25° C., 10 minutes • 2. 50° C., 30 minutes • 3. 85° C., 5 minutes • 4. Add E. Coli RNase H, 37° C., 20 minutes • 5. Hold at 4° C. Quantitative Reverse Transcription Polymerase Chain Reaction (qRT-PCR).
The cDNA was diluted 1:3 fold in nuclease-free water for quantitative polymerase chain reaction (qPCR) setup. Human and mouse TaqMan™ assays for targeted genes were ordered through Applied Biosystems™. TaqMan™ assay selection was based on manufacturer's recommendation. The qRT-PCR was set up using Applied Biosystems™ TaqMan™ Fast Advanced Master Mix according to manufacturer's protocol. The qRT-PCR was run on QuantStudio™ 12 Flex with fast run mode: • 1. 95° C., 20 seconds • 2. 95° C., 1 second • 3. 60° C., 20 seconds • 4. Repeat steps 2-3, 39 times
The qPCR data was analyzed, and all cycle threshold (Ct) values were normalized to glyceraldehyde-3-phosphate dehydrogenase (GAPDH) (ΔCt). Analysis was plotted and presented using GraphPad Prism (GraphPad, Version 8.4.1, San Diego, CA).
The levels of phospho-c-Jun in NHLF and non-small cell lung CAF in response to TGF-β in the presence of DMSO or varying concentrations of Compound 1 were summarized in FIG. 7. Cells were treated with DMSO or Compound 1 for 1 hour prior to treatment with 10 ng/mL TGF-β for an additional 2 hours. Phospho-c-Jun levels were determined by western blot analysis and were normalized to DMSO treated samples. […] The relative expression of fibroblast activation markers in NHLF and lung CAF in response to TGF-β in the presence of DMSO or varying concentrations of Compound 1 were summarized in FIGS. 8A-8C and FIGS. 9A-9C. Cells were treated with DMSO or Compound 1 for 2 hours prior to treatment with 10 ng/mL TGF-β. The RNA expression was assessed 24 hours after TGF-β treatment.

Setting [1] is: CAF stimulated with TGFβ, 10 μM Compound 1.
Where [2] appears, read: CAF, 30 μM Compound 1, 10 ng/mL TGF-β, 24 hours.

Structures are written as SMILES.

As for `C[C@@H]1CC[C@@H](Nc2nc(NC(C)(C)C)ncc2C(N)=O)C[C@H]1O` [Compound 1, 2-(tert-butylamino)-4-((1R,3R,4R)-3-hydroxy-4-methylcyclohexylamino)-pyrimidine-5-carboxamide], under setting [1], the “PAI-1 reduced relative to DMSO” value was “PAI-1, ACTA2, and TNC were reduced 71%,”; the “TNC reduced relative to DMSO” value was found to be 77%. Further, the “TNC induction, reduction from peak activation relative to baseline” value (CAF, 0.3 μM Compound 1, 10 ng/mL TGF-β, 24 hours) is recorded as 34%. Moreover, the “PAI-1 induction, reduction from peak activation relative to baseline” value (CAF, 1 μM Compound 1, 10 ng/mL TGF-β, 24 hours) is given as 25%. Besides, the “ACTA2 induction, reduction from peak activation relative to baseline” value (CAF, 10 μM Compound 1, 10 ng/mL TGF-β, 24 hours) was 71%. Also, under setting [2], the ACTA2 expression entry is recorded as “lower than samples in the absence of TGF-β”; the “PAI-1 induction, reduction from peak activation relative to baseline” value worked out at 98%; the “TNC induction, reduction from peak activation relative to baseline” value is 97%.
